Patent US10597388B2, “Pyridazinone herbicides” (FMC CORPORATION, priority 2014, dated 2020)

Tests used:
Format in all cases: in vivo
[1] = system: ducksalad (Heteranthera limosa); experiment: Test B flooded paddy test; details: 250 g ai/ha, Flood; visual rating on scale of 0 to 100 where 0 is no effect and 100 is complete control; 13 to 15 d after treatment
Procedure, shortened: (§1)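 Ratings use a 0-100 visual scale, where 100 is complete control, and compare treated plants with controls after 13 to 15 d of greenhouse growth. Compound went straight into paddy water kept 3 cm over the soil surface, applied to seedlings at the 2-leaf stage.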

[2] = system: barnyardgrass (Echinochloa crus-galli); experiment: Test B flooded paddy test; details: 250 g ai/ha, Flood; visual rating on scale of 0 to 100 where 0 is no effect and 100 is complete control; 13 to 15 d after treatment
Procedure, shortened: as §1

rice (Oryza sativa) = experiment: Test B flooded paddy test; details: 250 g ai/ha, Flood; visual rating on scale of 0 to 100 where 0 is no effect and 100 is complete control; 13 to 15 d after treatment
Procedure, shortened: as §1

[3] = system: sedge, umbrella (small-flower umbrella sedge, Cyperus difformis); experiment: Test B flooded paddy test; details: 250 g ai/ha, Flood; visual rating on scale of 0 to 100 where 0 is no effect and 100 is complete control; 13 to 15 d after treatment
Procedure, shortened: as §1

[4] = system: blackgrass (Alopecurus myosuroides); experiment: Test A greenhouse herbicide test, postemergence; details: for Plant response rating, Blackgrass: 125 g ai/ha, 0 to 100 scale where 0 is no effect and 100 is complete control; for Blackgrass plant response rating: 500 g ai/ha, 0 to 100 scale, 0 is no effect, 100 is complete control
Procedure, shortened: (§2)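 Scores are visual injury ratings from 0 (no effect) to 100 (complete control) versus untreated plants, taken roughly 10 d after treatment in the greenhouse. Treatment was postemergence, on one- to two-leaf plants 2–10 cm high growing in a loam soil/sand mix.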

[5] = system: galium (catchweed bedstraw, Galium aparine); experiment: Test A greenhouse herbicide test, postemergence; details: for Plant response rating, Galium: 125 g ai/ha, 0 to 100 scale where 0 is no effect and 100 is complete control; for Galium plant response rating: 500 g ai/ha, 0 to 100 scale, 0 is no effect, 100 is complete control
Procedure, shortened: as §2

[6] = system: foxtail, giant (giant foxtail, Setaria faberii); experiment: Test A greenhouse herbicide test, pre- and postemergence
From the text: (§3) Seeds of plant species selected from barnyardgrass (Echinochloa crus-galli), kochia (Kochia scoparia), ragweed (common ragweed, Ambrosia elatior), ryegrass, Italian (Italian ryegrass, Lolium multiflorum), crabgrass, large (large crabgrass, Digitaria sanguinalis), foxtail, giant (giant foxtail, Setaria faberii), momingglory (Ipomoea spp.), pigweed (Amaranthus retroflexus), velvetleaf (Abutilon theophrasti), wheat (Triticum aestivum), and corn (Zea mays) were planted into a blend of loam soil and sand and treated preemergence with a directed soil spray using test chemicals formulated in a non-phytotoxic solvent mixture which included a surfactant.
(§4) At the same time, plants selected from these crop and weed species and also blackgrass (Alopecurus myosuroides), and galium (catchweed bedstraw, Galium aparine) were planted in pots containing the same blend of loam soil and sand and treated with postemergence applications of test chemicals formulated in the same manner. Plants ranged in height from 2 to 10 cm and were in the one- to two-leaf stage for the postemergence treatment. Treated plants and untreated controls were maintained in a greenhouse for approximately 10 d, after which time all treated plants were compared to untreated controls and visually evaluated for injury. Plant response ratings, summarized in Table A, are based on a 0 to 100 scale where 0 is no effect and 100 is complete control. A dash (-) response means no test result.

[7] = system: barnyardgrass (Echinochloa crus-galli); experiment: as above
From the text: as §3, §4

[8] = system: wheat (Triticum aestivum); experiment: as above; details: Postemergence; for Plant response rating, Wheat: 125 g ai/ha, 0 to 100 scale where 0 is no effect and 100 is complete control; for Wheat plant response rating: 500 g ai/ha, 0 to 100 scale, 0 is no effect, 100 is complete control
From the text: as §3, §4

[9] = system: ragweed (common ragweed, Ambrosia elatior); experiment: as above
From the text: as §3, §4

[10] = system: ryegrass, Italian (Italian ryegrass, Lolium multiflorum); experiment: as above
From the text: as §3, §4

corn (Zea mays) = experiment: as above; details: Postemergence; for Plant response rating, Corn: 125 g ai/ha, 0 to 100 scale where 0 is no effect and 100 is complete control; for Corn plant response rating: 500 g ai/ha, 0 to 100 scale, 0 is no effect, 100 is complete control
From the text: as §3, §4

kochia (Kochia scoparia) = experiment: as above
From the text: as §3, §4

[11] = system: pigweed (Amaranthus retroflexus); experiment: as above
From the text: as §3, §4

[12] = Postemergence, 125 g ai/ha, 0 to 100 scale where 0 is no effect and 100 is complete control
[13] = Postemergence, 500 g ai/ha, 0 to 100 scale, 0 is no effect, 100 is complete control
[14] = Preemergence, 125 g ai/ha, 0 to 100 scale where 0 is no effect and 100 is complete control
[15] = Preemergence, 500 g ai/ha, 0 to 100 scale, 0 no effect, 100 complete control
[16] = Preemergence, 500 g ai/ha, 0 to 100 scale where 0 is no effect and 100 is complete control

SMILES | Plant response rating, Ducksalad [1] | Plant response rating, Barnyardgrass [2] | Plant response rating, Rice (rice (Oryza sativa)) | Plant response rating, Sedge, Umbrella [3] | Plant response rating, Blackgrass [4] | Blackgrass plant response rating [4] | Plant response rating, Galium [5] | Galium plant response rating [5] | Plant response rating, Foxtail, Giant [6, 12] | Foxtail, Giant plant response rating [6, 13] | Foxtail, Giant plant response rating [6, 14] | Plant response rating, Barnyardgrass [7, 12] | Barnyardgrass plant response rating [7, 13] | Barnyardgrass plant response rating [7, 14] | Plant response rating, Wheat [8] | Wheat plant response rating [8] | Plant response rating, Ragweed [9, 12] | Ragweed plant response rating [9, 13] | Ragweed plant response rating [9, 14] | Plant response rating, Ryegrass, Italian [10, 12] | further results
COC(=O)Oc1c(C)nn(C)c(=O)c1-c1ccc(Cl)c2ccccc12 [Compound 63] | 30 | 0 | 0 | 65 | 70 | 80 | 100 | 100 | 70 | 90 | 40 | 60 | 90 | 80 | 0 | 40 | 100 | 100 | 80 | 100 | Plant response rating, Foxtail, Giant [6, 15]: 70; Plant response rating, Barnyardgrass [7, 15]: 90; Plant response rating, Ragweed [9, 15]: 90; Ryegrass, Italian plant response rating [10, 13]: 100; Ryegrass, Italian plant response rating [10, 14]: 100; Plant response rating, Ryegrass, Italian [10, 15]: 100; Plant response rating, Corn (corn (Zea mays)): 0; Corn plant response rating (corn (Zea mays)): 40; Plant response rating, Kochia (kochia (Kochia scoparia); [12]): 100; Kochia plant response rating (kochia (Kochia scoparia); [13]): 100; Kochia plant response rating (kochia (Kochia scoparia); [14]): 100; Plant response rating, Kochia (kochia (Kochia scoparia); [15]): 100; Plant response rating, Pigweed [11, 12]: 100; Pigweed plant response rating [11, 13]: 100; Pigweed plant response rating [11, 14]: 100; Plant response rating, Pigweed [11, 15]: 100
CCOc1ccc2oc(CC)c(-c3c(O)c(C)nn(C)c3=O)c2c1 [Compound 68] | 0 | 0 | 0 | 30 | 0 | 10 | 0 | 0 | 10 | 50 | 10 | 70 | 80 | 10 | 0 | 0 | 0 | 0 | 0 | 0 | Plant response rating, Foxtail, Giant [6, 16]: 50; Plant response rating, Barnyardgrass [7, 15]: 40; Plant response rating, Ragweed [9, 16]: 20; Ryegrass, Italian plant response rating [10, 13]: 0; Ryegrass, Italian plant response rating [10, 14]: 0; Plant response rating, Ryegrass, Italian [10, 16]: 0; Plant response rating, Corn (corn (Zea mays)): 0; Corn plant response rating (corn (Zea mays)): 0; Plant response rating, Kochia (kochia (Kochia scoparia); [12]): 0; Kochia plant response rating (kochia (Kochia scoparia); [13]): 0; Kochia plant response rating (kochia (Kochia scoparia); [14]): 0; Plant response rating, Kochia (kochia (Kochia scoparia); [16]): 0; Plant response rating, Pigweed [11, 12]: 0; Pigweed plant response rating [11, 13]: 0; Pigweed plant response rating [11, 14]: 0; Plant response rating, Pigweed [11, 16]: 0
Cc1nn(C)c(=O)c(-c2c(C)n(C)c3ccc(Cl)cc23)c1O [Compound 74] | 0 | 0 | 0 | 0 | 20 | 40 | 10 | 20 | 0 | 20 | 0 | 0 | 10 | 0 | 0 | 0 | 0 | 10 | 0 | 0 | Plant response rating, Foxtail, Giant [6, 16]: 0; Plant response rating, Barnyardgrass [7, 15]: 0; Plant response rating, Ragweed [9, 16]: 0; Ryegrass, Italian plant response rating [10, 13]: 0; Ryegrass, Italian plant response rating [10, 14]: 0; Plant response rating, Ryegrass, Italian [10, 16]: 0; Plant response rating, Corn (corn (Zea mays)): 0; Corn plant response rating (corn (Zea mays)): 0; Plant response rating, Kochia (kochia (Kochia scoparia); [12]): 30; Kochia plant response rating (kochia (Kochia scoparia); [13]): 30; Kochia plant response rating (kochia (Kochia scoparia); [14]): 0; Plant response rating, Kochia (kochia (Kochia scoparia); [16]): 0; Plant response rating, Pigweed [11, 12]: 40; Pigweed plant response rating [11, 13]: 50; Pigweed plant response rating [11, 14]: 30; Plant response rating, Pigweed [11, 16]: 50
COc1nn(C)c(=O)c(-c2c(C(F)F)ccc3ccccc23)c1O [Compound 86] | 20 | 0 | 15 | 60 | 10 | 30 | 90 | 100 | 50 | 70 | 20 | 30 | 10 | 0 | 0 | 0 | 80 | 80 | 40 | 0 | Plant response rating, Foxtail, Giant [6, 16]: 70; Plant response rating, Barnyardgrass [7, 16]: 40; Plant response rating, Ragweed [9, 16]: 90; Ryegrass, Italian plant response rating [10, 13]: 50; Ryegrass, Italian plant response rating [10, 14]: 0; Plant response rating, Ryegrass, Italian [10, 16]: 40; Plant response rating, Corn (corn (Zea mays)): 0; Corn plant response rating (corn (Zea mays)): 0; Plant response rating, Kochia (kochia (Kochia scoparia); [12]): 70; Kochia plant response rating (kochia (Kochia scoparia); [13]): 80; Kochia plant response rating (kochia (Kochia scoparia); [14]): 0; Plant response rating, Kochia (kochia (Kochia scoparia); [16]): 40; Plant response rating, Pigweed [11, 12]: 90; Pigweed plant response rating [11, 13]: 90; Pigweed plant response rating [11, 14]: 80; Plant response rating, Pigweed [11, 16]: 100
CCOc1ccc2cccc(-c3c(O)c(C)nn(C)c3=O)c2c1 [Compound 92] | 0 | 0 | 0 | 40 | 0 | 20 | 10 | 30 | 0 | 0 | 0 | 0 | 0 | 0 | 0 | 0 | 0 | 0 | 0 | 0 | Plant response rating, Foxtail, Giant [6, 16]: 0; Plant response rating, Barnyardgrass [7, 16]: 0; Plant response rating, Ragweed [9, 16]: 0; Ryegrass, Italian plant response rating [10, 13]: 0; Ryegrass, Italian plant response rating [10, 14]: 0; Plant response rating, Ryegrass, Italian [10, 16]: 0; Plant response rating, Corn (corn (Zea mays)): 0; Corn plant response rating (corn (Zea mays)): 0; Plant response rating, Kochia (kochia (Kochia scoparia); [12]): 60; Kochia plant response rating (kochia (Kochia scoparia); [13]): 70; Kochia plant response rating (kochia (Kochia scoparia); [14]): 0; Plant response rating, Kochia (kochia (Kochia scoparia); [16]): 20; Plant response rating, Pigweed [11, 12]: 20; Pigweed plant response rating [11, 13]: 30; Pigweed plant response rating [11, 14]: 0; Plant response rating, Pigweed [11, 16]: 0
